The results in this text go back to patent publication US10934255B2, “Nrf and HIF activators/HDAC inhibitors and therapeutic methods using the same” (THE BOARD OF TRUSTEES OF THE UNIVERSITY OF ILLINOIS, priority 2017, dated 2021).

One test addresses T1, Human HDAC6 (Homo sapiens, UniProt Q9UBN7).
T1 construct: Full length with N-terminal GST tag, MW=159 kDa; GST (N); host or cells: Sf9 insect cells (baculovirus)
T1 sequence (Q9UBN7 1-1215): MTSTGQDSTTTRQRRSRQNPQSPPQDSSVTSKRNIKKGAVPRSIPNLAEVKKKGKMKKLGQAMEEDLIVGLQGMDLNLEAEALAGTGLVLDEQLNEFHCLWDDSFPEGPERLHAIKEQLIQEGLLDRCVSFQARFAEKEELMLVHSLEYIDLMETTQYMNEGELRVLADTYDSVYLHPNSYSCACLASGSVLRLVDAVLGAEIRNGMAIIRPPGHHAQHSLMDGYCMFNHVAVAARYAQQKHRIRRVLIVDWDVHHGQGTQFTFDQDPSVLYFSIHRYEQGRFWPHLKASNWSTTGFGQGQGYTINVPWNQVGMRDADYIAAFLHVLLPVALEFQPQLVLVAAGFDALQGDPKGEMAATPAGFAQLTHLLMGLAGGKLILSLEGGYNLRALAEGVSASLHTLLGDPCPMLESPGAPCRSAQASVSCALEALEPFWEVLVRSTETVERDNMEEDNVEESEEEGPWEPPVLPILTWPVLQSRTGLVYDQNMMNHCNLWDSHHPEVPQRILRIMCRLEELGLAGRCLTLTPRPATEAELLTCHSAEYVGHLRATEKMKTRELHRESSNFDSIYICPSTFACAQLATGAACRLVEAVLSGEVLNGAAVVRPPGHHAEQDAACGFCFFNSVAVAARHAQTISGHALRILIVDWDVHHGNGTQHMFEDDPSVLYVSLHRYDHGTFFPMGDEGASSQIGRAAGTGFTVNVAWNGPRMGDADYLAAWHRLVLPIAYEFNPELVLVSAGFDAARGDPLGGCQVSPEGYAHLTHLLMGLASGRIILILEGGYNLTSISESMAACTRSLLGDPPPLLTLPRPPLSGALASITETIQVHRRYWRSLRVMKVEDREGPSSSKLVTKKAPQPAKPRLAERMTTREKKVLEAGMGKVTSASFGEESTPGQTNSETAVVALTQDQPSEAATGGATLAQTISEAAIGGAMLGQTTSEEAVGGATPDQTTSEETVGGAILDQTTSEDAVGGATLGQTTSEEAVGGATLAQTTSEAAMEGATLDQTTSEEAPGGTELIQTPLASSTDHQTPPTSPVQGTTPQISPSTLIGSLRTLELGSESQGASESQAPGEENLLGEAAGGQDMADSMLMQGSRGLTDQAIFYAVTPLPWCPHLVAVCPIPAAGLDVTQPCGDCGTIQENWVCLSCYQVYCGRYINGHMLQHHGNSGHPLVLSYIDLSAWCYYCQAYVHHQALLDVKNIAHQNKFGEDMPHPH
Nature of the test: HDAC6 inhibition assay (fluorogenic p53 peptide substrate). Type of test: biochemical. The note with it: Table 1; performed by Reaction Biology Corporation; read-out: HDAC isoform IC50 (nM) 6. As for the experimental part: (§1) The HDAC1, 2, 4, 5, 6, 7, 8, 9, 10, and 11 assays used isolated recombinant human protein; HDAC3/NcoR2 complex was used for the HDAC3 assay. Substrate for HDAC1, 2, 3, 6, 10, and 11 assays is a fluorogenic peptide from p53 residues 379-382 (RHKKAc); substrate for HDAC8 is fluorogenic diacyl peptide based on residues 379-382 of p53 (RHKAcKAc). Acetyl-Lys(trifluoroacetyl)-AMC substrate was used for HDAC4, 5, 7, and 9 assays. Compounds were dissolved in DMSO and tested in 10-dose IC50 mode with 3-fold serial dilution starting at 30 μM. Control Compound Trichostatin A (TSA) was tested in a 10-dose IC50 with 3-fold serial dilution starting at 5 μM. IC50 values were extracted by curve-fitting the dose/response slopes. Assays were performed in duplicate and IC50 values are an average of data from both experiments.
Human HDAC6 (GenBank Accession No. BC069243): Full length with N-terminal GST tag, MW=159 kDa, expressed by baculovirus expression system in Sf9 cells. Enzyme is in 50 mM Tris-HCl, pH 8.0, 138 mM NaCl, 20 mM glutathione, and 10% glycerol, and stable for >6 months at −80° C. Purity is >90% by SDS-PAGE. Specific Activity is 50 U/μg, where one U=1 pmol/min under assay condition of 25 mM Tris/Cl, pH8.0, 137 mM NaCl, 2.7 mM KCl, 1 mM MgCl2, and 0.1 mg/ml BSA, 30 μM HDAC substrate, and 5 ng/μl HDAC6, incubation for 60 min at 30° C.
(§2) Substrate for HDAC1 and HDAC6: Acetylated peptide substrate for HDAC, based on residues 379-382 of p53 (Arg-His-Lys-Lys(Ac)), a site of regulatory acetylation by the p300 and CBP acetyltransferases (lysines 381, 382)1-6, is the best for HDAC from among a panel of substrates patterned on p53, histone H3 and histone H4 acetylation sites7.
(§3) Reaction Buffer: 50 mM Tris-HCl, pH 8.0, 137 mM NaCl, 2.7 mM KCl, 1 mM MgCl2, 1 mg/ml BSA.
HDAC6: 12.6 nM HDAC6 and 50 μM HDAC substrate are in the reaction buffer and 1% DMSO final. Incubate for 2 hours at 30° C.
(§4) All IC50 values are automatically calculated using the GraphPad Prism version 5 and Equation of Sigmoidal dose-response (variable slope): Y=Bottom+(Top−Bottom)/(1+10^((Log EC50−X)*HillSlope)), where X is the logarithm of concentration, Y is the response, Y starts at Bottom and goes to Top with a sigmoid shape. In most cases, “Bottom” is set 0, and “Top” is set “less than 120%”. This is identical to the “four parameter logistic equation”. IC50 curves also are drawn using the GraphPad Prism, and IC50 values and Hill slopes are provided.
(§5) HDAC Activity Assays: HDAC assay is performed using fluorescently-labeled acetylated substrate, which comprises an acetylated lysine side chain. After incubation with HDAC, deacetylation of the substrate sensitizes the substrate such that, in a second step, treatment with the detection enzyme produces a fluorophore. HDACs 1 and 6 were expressed as full length fusion proteins. Purified proteins were incubated with 50 μM fluorescently-labeled acetylated peptide substrate and test compound for 2 hours at RT in HDAC assay buffer containing 50 mM Tris-HCl (pH 8.0), 137 mM NaCl, 2.7 mM KCl, 1 mM MgCl2, 1% DMSO, and 1% BSA.
(§6) Reactions were terminated by the addition of the Developer after 2 hours, and the development of fluorescence signal, which was relative to the amount of deacetylated peptide, was monitored by time-course measurement of EnVision (PerkinElmer). The HDAC activity was estimated from the slope of time-course measurement of the fluorescence intensity. The slope of no-enzyme control (substrate alone) was served as background, and % Enzyme activity was calculated using background-subtracted slope of no inhibitor control (DMSO) as 100% activity.

For the next test, the system named is Nrf2. Nature of the test: Nrf2 activation, Neh2-luc reporter assay. Type of test: cell-based. Particulars: measured at 10 μM. As for the experimental part: (§7) The present compounds were evaluated for an ability to activate Nrf2 and HIF-1α. Table 1 summarizes Nrf2 activation data obtained in Neh2-luc reporter assay; and HIF1 activation measured in ODD reporter assay.

Another test deals with HIF-1α. The test can be described thus: HIF1 activation, ODD reporter assay. Particulars: measured at 10 μM. Type of test: cell-based. The protocol:
as §7

Another test concerns the target T2, Human HDAC1 (Homo sapiens, UniProt Q13547).
T2 construct: Full length with C-terminal GST tag, MW=79.9 kDa; GST (C); host or cells: Sf9 insect cells (baculovirus)
The test can be described thus: HDAC1 inhibition assay (fluorogenic p53 peptide substrate). Type of test: biochemical. The note with it: Table 1; performed by Reaction Biology Corporation; read-out: HDAC isoform IC50 (nM) 1. As for the experimental part:
as §1
Human HDAC1 (GenBank Accession No. NM_004964): Full length with C-terminal GST tag, MW=79.9 kDa, expressed by baculovirus expression system in Sf9 cells. Enzyme is in 50 mM Tris-HCl, pH 8.0, 138 mM NaCl, 20 mM glutathione, and 10% glycerol, and stable for >6 months at −80° C. Purity is >10% by SDS-PAGE. Specific Activity is 20 U/μg, where one U=1 pmol/min under assay condition of 25 mM Tris/Cl, pH8.0, 137 mM NaCl, 2.7 mM KCl, 1 mM MgCl2, 0.1 mg/ml BSA, 100 μM HDAC substrate, and 13.2 ng/μl HDAC1, incubation for 30 min at 30° C.
as §2, §3
HDAC1: 75 nM HDAC1 and 50 μM HDAC substrate are in the reaction buffer and 1% DMSO final. Incubate for 2 hours at 30° C.
as §4, §5, §6

T2 sequence (Q13547 whole entry): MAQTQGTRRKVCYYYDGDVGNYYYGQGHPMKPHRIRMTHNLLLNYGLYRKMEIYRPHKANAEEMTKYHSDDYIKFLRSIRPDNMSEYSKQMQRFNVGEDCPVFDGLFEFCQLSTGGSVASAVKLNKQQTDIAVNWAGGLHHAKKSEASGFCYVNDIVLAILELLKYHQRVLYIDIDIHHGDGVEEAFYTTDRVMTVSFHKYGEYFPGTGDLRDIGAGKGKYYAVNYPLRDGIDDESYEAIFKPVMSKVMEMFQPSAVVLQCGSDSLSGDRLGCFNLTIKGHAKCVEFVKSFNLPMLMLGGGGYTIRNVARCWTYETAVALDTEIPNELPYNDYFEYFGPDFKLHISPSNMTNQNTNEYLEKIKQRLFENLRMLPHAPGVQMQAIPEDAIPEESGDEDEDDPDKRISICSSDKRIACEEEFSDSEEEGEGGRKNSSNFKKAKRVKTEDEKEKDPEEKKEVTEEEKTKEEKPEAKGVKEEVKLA

For `O=C(NO)c1ccc(CN2CCc3cc(Cl)ccc32)cc1F` [II-ING-51, 4-((5-Chloroindolin-1-yl)methyl)-2-fluoro-N-hydroxybenzamide], at Human HDAC6, the half-inhibitory concentration (IC50) was found to be 40.2 nM. The fold induction at 10 µM in the test with Nrf2 turned out to be 1.6; in the test on HIF-1α, 7.2.
Consider `O=C(NO)c1ccc(CN2CCc3cc(F)c(Cl)cc32)cc1` [II-ING-56, 4-((6-Chloro-5-fluoroindolin-1-yl)methyl)-N-hydroxybenzamide], for which the IC50 stood at 7820 nM on Human HDAC1 and 4.6 nM at Human HDAC6. In addition, the fold induction at 10 µM with Nrf2 was determined as 5.5; with HIF-1α, 7.8.
Consider `O=C(NO)c1ccc(CN2CCc3cc([N+](=O)[O-])ccc32)cc1` [II-ING-57, N-Hydroxy-4-((5-nitroindolin-1-yl)methyl)benzamide], for which the 50% inhibitory concentration (IC50) on Human HDAC1 was found to be 1970 nM; on Human HDAC6 it was 1.4 nM. The fold induction at 10 µM was found to be 6.6 with Nrf2 and 3.9 with HIF-1α.
The matching figures for `O=C(NO)c1ccc(CN2CCc3ccc(OCc4ccccc4)cc32)cc1` [II-ING-61, 4-((6-(Benzyloxy)indolin-1-yl)methyl)-N-hydroxybenzamide]: 1850 nM, 25.2 nM, 2.2 and 7.
For `CC1(C)CN(Cc2ccc(C(=O)NO)cc2)c2ccccc21` [II-ING-65, 4-((3,3-Dimethylindolin-1-yl)methyl)-N-hydroxybenzamide], the results for the half-maximal inhibitory concentration (IC50) on Human HDAC1 and at Human HDAC6 were 18700 nM and 24.5 nM, respectively. In addition, the fold induction at 10 µM in the test on Nrf2 amounted to 1.8; with HIF-1α, 2.8.
As to `O=C(NO)c1ccc(CN2CC3(CC3)c3cc(F)ccc32)cc1` [II-ING-68, 4-((5′-Fluorospiro[cyclopropane-1,3′-indolin]-1′-yl)methyl)-N-hydroxybenzamide], the IC50 turned out to be 4700 nM on Human HDAC1 and 8.2 nM at Human HDAC6. Also, the fold induction at 10 µM with Nrf2 is 6.2; in the test on HIF-1α, 5.8.
Turning to `Cn1c(NCc2ccc(C(=O)NO)cc2)nc2cc(Cl)ccc21` [II-ING-85, 4-(((5-chloro-1-methyl-1H-benzo[d]imidazol-2-yl)amino)methyl)-N-hydroxybenzamide], the results for the concentration for half-maximal inhibition (IC50) at Human HDAC1 and on Human HDAC6 were 1500 nM and 2.7 nM, respectively. The values for the fold induction at 10 µM in the test on Nrf2 and in the test on HIF-1α were 1.3 and 1.1, respectively.
Regarding `O=C(NO)c1ccc(CNc2nc3ccccc3n2-c2ccccc2)cc1` [II-ING-87, N-hydroxy-4-(((1-phenyl-1H-benzo[d]imidazol-2-yl)amino)methyl)benzamide], the 50% inhibitory concentration (IC50) worked out at 3230 nM on Human HDAC1 and 13 nM on Human HDAC6. In addition, the fold induction at 10 µM in the test with Nrf2 was determined as 1.2; in the test on HIF-1α it was 1.
For `O=C(NO)c1cccc(CN2C(=O)C(F)(F)c3ccccc32)c1` [II-ING-100, 3-((3,3-Difluoro-2-oxoindolin-1-yl)methyl)-N-hydroxybenzamide], the values for the half-maximal inhibitory concentration (IC50) on Human HDAC1 and at Human HDAC6 were at least 30000 nM and 5560 nM, respectively. The values for the fold induction at 10 µM in the test on Nrf2 and in the test with HIF-1α were 1.5 and 1, respectively.
As for `CC1(C)C(=O)N(Cc2ccc(C(=O)NO)cc2)c2ccccc21` [II-ING-101, 4-((3,3-Dimethyl-2-oxoindolin-1-yl)methyl)-N-hydroxybenzamide], the half-maximal inhibitory concentration (IC50) on Human HDAC1 worked out at 7880 nM; at Human HDAC6, 5.1 nM. The fold induction at 10 µM is 3.4 in the test on Nrf2 and 1 with HIF-1α.
Regarding `C[N+]1(C)CCC2(CC1)C(=O)N(Cc1ccc(C(=O)NO)cc1)c1ccccc12` [II-ING-109, 1-(4-(Hydroxycarbamoyl)benzyl)-1′,1′-dimethyl-2-oxospiro[indoline-3,4′-piperidin]-1′-ium], the 50% inhibitory concentration (IC50) on Human HDAC1 turned out to be 19700 nM; on Human HDAC6 it was 18 nM. In the test on Nrf2, the Nrf2 fold activation came to 1.5 fold. Also, the HIF-1α fold activation in the test with HIF-1α stood at 1.0 fold.
For `C[N+]1(C)CCC2(CC1)C(=O)N(Cc1ccc(C(=O)NO)cc1)c1ccccc12` [II-ING-118], the figures for the half-maximal inhibitory concentration (IC50) at Human HDAC1 and on Human HDAC6 were 7880 nM and 5.8 nM, respectively. The figures for the fold induction at 10 µM with Nrf2 and in the test with HIF-1α were 2 and 1.3, respectively.
